Source: a melting point compilation (Tetko et al.; mined from patent text by program, amines drawn as free bases though some values may be those of a salt)

| melting point [°C] | Compound |
| --- | --- |
| 107 | CCCCCCCCCCCCCCCCCCOc1ccc(NC(=O)c2ccc(OC(C)=O)cc2)cc1OCCCCCCCCCCCCCCCCCC |
| 98 to 99 | CSc1ccc(NC(C#N)c2ccc(OC(F)F)cc2)cc1 (stereo not drawn) |
| 185 | O=C1c2cccc([N+](=O)[O-])c2C2CC3(CCN12)SCCS3 (stereo not drawn) |
| 120 to 128 | Cc1onc(NS(=O)(=O)c2ccccc2-c2ccc(-c3ncco3)cc2CN(C)C(=O)CC(C)(C)C)c1C |
| 181 to 183 | CCCCNc1c2c(nc3c1cnn3CC)C(=O)c1ccccc1CC2 |
| 138 to 141 | CCCc1c(C(C)C)nc(C(C)C)c(CO)c1-c1ccc(F)cc1O |
| > 300 | O=C(O)C(=O)CC(=O)c1cn(Cc2ccncc2)c2ccccc2c1=O |
| 145 to 147 | CC1=C(NC=O)C(C)C(C)(C(C)C)C2=C1CC(C)(CI)O2 (stereo not drawn) |
| > 220 | CC(C)c1cc(Oc2c(I)cc(CP(=O)(O)O)cc2I)ccc1O |
| 110 to 111 | CCOc1nn(CCc2ccc(OCc3nc(-c4ccccc4)oc3C)cc2)cc1CCC(=O)O |
| 289 to 294 | O=C(O)c1ccccc1Sc1ccc(C(O)=NCc2ccccc2)c(C(=O)O)c1 |
| 120 to 121 | CCOc1nn(Cc2ccc(OCc3nc(-c4ccccc4)ccc3Cl)cc2)cc1CCC(=O)O |
| 82 to 83 | CCOC(=O)/C=C/c1cc(-c2ccc(C(F)(F)F)cc2)oc1CC |
| 128 to 130 | Cc1ccc(S(=O)(=O)NCCc2cccc(OCCN)c2)cc1 |
| 135 to 136 | CCCC(CCC)NC(=O)Nc1ccc(Cl)cc1 |
| 135 to 137 | CC1(C)C=C(N2CCCC2=O)c2cc([N+](=O)[O-])ccc2O1 |
| 99 to 120 | CCCC[C@H](NC(=O)[C@H](C)Nc1nc2ccccc2s1)C(=O)OC |
| 204 to 206 | O=C(Nc1nccs1)c1ccc(-c2ccc3nnn(Cc4ccc5ncccc5c4)c3n2)cc1F |
| 243 to 245 | O=C1NC(Cc2ccc([N+](=O)[O-])c(OCc3ccccc3)c2)C(=O)Nc2ccccc21 (stereo not drawn) |

| melting point [°C] | Compound |
| --- | --- |
| 148 to 151 | CSc1nc(C)nc(SC)c1NC(=O)CCCCCSc1nc2ccccc2o1 |
| 297 | CC(C)(C)c1ccc(-c2cc3ccc(C(=O)O)cc3[nH]2)cc1 |
| 193 to 194 | OCC(O)COc1cccc2cccnc12 (stereo not drawn) |
| 158 to 159 | Nc1n[nH]c(Nc2ccccc2)n1 |
| 114 to 116 | COc1ccc2cc(C=CC(C)=O)ccc2c1 |
| 140 to 143 | C=CCNc1c(C(=O)OCC)cnc2cn(C)nc12 |
| 170 to 172 | CCN(C)C(=O)/C=C/CSc1nc(N)cc(Cl)n1 |
| 98 to 100 | CSc1cnnc(Cl)c1 |
| 85 to 87 | COC(=O)CN(c1ccccc1)c1ccc(OC)cc1C(=O)OC |
| 145 | CC(C)(C)OC(=O)N[C@@H](Cc1ccccc1)c1nc2c(C(F)(F)F)cccc2c(=O)o1 |
| 163 to 165 | COC(=O)N1CCC2=NNC(=O)CC2C1 (stereo not drawn) |
| 214 to 215 | CC(c1ccc(F)c(F)c1)n1ncc(-c2ccc(S(N)(=O)=O)cc2)c(-c2ccc(F)cc2)c1=O (stereo not drawn) |
| 220 to 221 | COc1ccnc(CCc2nc3cc(-c4ccc(NC(C)=O)cc4)cnc3[nH]2)c1 |
| 189 to 191 | N#Cc1ccc(C=Cc2ncn(CC(O)(Cn3cncn3)c3ccc(F)cc3F)n2)cc1 (stereo not drawn) |
| 141 to 142 | COc1ccc2c(C)c(CCO)c(=O)oc2c1 |
| 110 to 112 | CCCCCCCCCCCCCCCCCC[C@@H]1OC(=O)C(O)=C1O |
| 200 to 202 | O=[N+]([O-])c1ccc2sc3ccc(F)cc3c2c1 |
| 229 to 231 | N=C(Nc1ccc(CCCC(=O)Nc2ccccc2)cc1)c1cccs1 |
| 75 to 80 | CS(=O)(=O)c1ccc(C(CC2CCCC2)C(=O)Nc2ccncn2)cc1Br (stereo not drawn) |

| melting point [°C] | Compound |
| --- | --- |
| 236 to 237 | CCCCN(CC)C(=O)c1cnc2c3c(ccc2c1)C(=O)C(C(=O)O)C=N3 (stereo not drawn) |
| 35 to 37 | C#CCOC(=O)c1cc(C)oc1C |
| 115 to 120 | COc1ccc(C(=O)Nc2ccc3ccc(Oc4ccccc4)nc3n2)cn1 |
| 116 to 118 | COCC(C)c1ccc(N2Cc3ccc(OC)cc3C2=O)cc1 (stereo not drawn) |
| 41 to 44 | Cn1cc(-c2ccccc2[N+](=O)[O-])cn1 |
| 71 to 72 | COc1ccc(-c2ncc(C(F)(F)F)cc2Cl)cc1 |
| 55 to 60 | Cc1cc(C(=O)CCc2cc(-c3ccc(C(F)(F)F)cc3)nn2CC2CC2)ccc1OC(C)(C)C(=O)O |
| 136 to 138 | COc1ccc2c(c1)c(CC(=O)OCC(=O)O)c(C)n2C(=O)c1cccc(C(F)(F)F)c1 |
| 179 to 181 | CCC1(c2cc(NC(=O)c3c(OC)cccc3OC)no2)CCCCC1 |
| 82 | O=C(Oc1ccccc1)N1c2ncccc2OCC1OP(=O)(Oc1ccccc1)Oc1ccccc1 (stereo not drawn) |
| 67 to 69 | OC(c1cccc(Br)n1)(C(F)(F)F)C(F)(F)F |
| 164 to 168 | CCN1C(=O)C(C)(C(=O)O)Oc2ccccc21 (stereo not drawn) |
| 48 to 50.5 | C=CCC(O)CCCCCCCCCCCCCCCCC (stereo not drawn) |
| 110 | COC(=O)NNC(=S)CC1CCCCO1 (stereo not drawn) |
| 155 to 157 | CC(C)N1CC(C(=O)c2ccc(Cc3ccc(F)cc3)o2)=C(O)C1=O |
| 55 to 57 | O=Cc1cc(F)cc2c1OCCC2 |
| 191 to 192 | Brc1ccccc1Sc1nc2ccccc2n2cncc12 |
| 159 to 161 | CCN1CC(=O)N(c2c(C(C)C)cccc2C(C)C)C1=S |
| 74 to 76 | COc1ccc([N+](=O)[O-])c(C2OCCO2)c1OC |

Further lines, the compound ahead of its results:

| Compound | melting point [°C] |
| --- | --- |
| Cc1cccc(CCOc2ccc(C=C3SC(=O)NC3=O)cc2)n1 | 180 to 182 |
| CN1CCC(C2c3cccc4c3N(CC4)c3ccccc3N2C(=O)OCC(Cl)(Cl)Cl)CC1 (stereo not drawn) | 160 to 162 |
| C=CCNc1ccc(N)cc1[N+](=O)[O-] | 80 to 83 |
| COc1cccc(-c2nc(N)c(C#N)nc2-c2ccc(=O)n(C(C)C)c2)c1 | 192 |
| COc1ccc2ccc(N3C(=O)c4ccccc4C3OC(=O)Oc3ccccc3)nc2n1 (stereo not drawn) | 145 |
| CCOC(=O)NCN1C(=O)CN=C(c2ccccc2Cl)c2cc(Cl)ccc21 | 147 to 149 |
| CC(=O)NC=Nc1ccc2nnc(-c3ncc([N+](=O)[O-])n3C)n2n1 | 237 to 241 |
| Fc1ccc(-c2nc(C(F)(F)F)nc(Cl)c2-c2ccccc2)cc1 | 67 to 68 |
| O=C(NCC(O)CO)c1cc2c(Oc3ccc(Cl)cc3)cncc2s1 (stereo not drawn) | 106 to 115 |
| CCOc1cc(NCCSCc2[nH]cnc2C)nc2ccccc12 | 152 to 154 |
| CC(C)(C)C(NC(=O)c1ccc(I)cc1)NS(=O)(=O)Nc1cccnc1 (stereo not drawn) | 177 to 178 |
| Nc1cc(Cl)nc(S(=O)Cc2ccc3ccccc3c2)n1 (stereo not drawn) | 222 to 223 |
| Oc1ccc(C2=C(c3ccc(OC4CCCCO4)cc3)CCCc3cc(OC4CCCCO4)ccc32)cc1 (stereo not drawn) | 182 to 183 |
| CN1CCNC1=NC(=S)Nc1ccccc1 | 205 to 208 |
| CC(C)(C)OC(=O)NC[C@H]1CN(c2ccc3c(c2)CCCc2cn[nH]c2-3)C(=O)O1 | 85 to 100 |
| O=C1NC(=O)C(Br)(Cc2ccccc2)C(=O)N1 | 164 to 166 |
| CCOC(=O)C1=C(COCc2nnc(N)s2)NC(C)=C(C(=O)OC)C1c1cccc(Cl)c1Cl (stereo not drawn) | 194 |
| N#CC1=C(C2CCC2)Nc2n[nH]cc2C1c1cccc(C#N)c1Br (stereo not drawn) | 278 |
| O=C1CC(Br)(CC(Br)(Br)Br)O1 (stereo not drawn) | 71 to 73 |
| CCOc1ccccc1-c1nc2c(C)nn(C)c2c(=O)[nH]1 | 201 to 204 |
| O=C1CCSc2cc(F)ccc21 | 61 to 66 |
| CCCc1cn(C(CC)C(=O)N(C)C)nc1-c1ccccc1 (stereo not drawn) | 63 to 65.5 |
| O=C1NCc2c(O)nc3ccccc3c21 | 245 to 246 |

| Compound | melting point [°C] |
| --- | --- |
| COc1ccc(C(=NO)c2cccc(F)c2F)c(O)c1Cl | 198 to 199 |
| COc1ccc(-c2cn3ccc4ccccc4c3n2)cc1 | 177 to 179 |
| CC1(C)CCC(C)(C)c2cc(N)ccc21 | 63 to 65 |
| COC(=O)c1ccc(Cl)cc1NC(=O)Cc1cccc(OC)c1 | 144 to 146 |
| O=Cc1cc(-c2ccc(Cl)cc2F)ccc1OC(F)(F)F | 41 to 42 |
| O=c1[nH]c2cc(Cl)ccc2n(O)c1=O | > 300 |
| Cc1cc(C#N)cn2cc(-c3cccc(-c4ccc(C#N)cc4)c3)nc12 | 236 to 238 |
| COCO[C@@H](CCCCC1CCCCC1)CCc1ccc(C(C)(C)C)c(NC(=O)CC2c3ccccc3Oc3ccccc32)c1 | 71 to 73 |
| Cc1nc(-c2cccc(NC(=O)N3CCc4c(cnc5[nH]nc(Br)c45)C3)c2)no1 | > 152 |
| CS(=O)(=O)Nc1ccc(NC(=O)CN2CCC(Cc3ccccc3)CC2)cc1 | 102 to 106 |
| CC(C)NC(=O)Nc1cc(-c2c(-c3ccc(F)cc3)nc3cccnn23)ccn1 | 222 to 223 |
| CCCCCCCCCC(=O)Nc1cc(C(=O)O)c2cc[nH]c2c1 | 248 to 250 |
| C=C1SC(=O)N(c2ccc3cc(-c4ccc(OC)c(-c5ccccc5)c4)ccc3c2)C1=O | 221 to 224 |
| COc1ccc(C(O)CNCc2cccc([N+](=O)[O-])c2)cc1OC (stereo not drawn) | 105 to 107 |
| COc1ccc(C(=O)CCC2CCCCC2)c(OC)c1 | 34 to 35 |
| Cc1cc(-c2c(-c3ccc(F)cc3)nn3cccnc23)ccn1 | 164 to 166 |
| O=C(O)COc1ccc(CCc2nc(-c3ccccc3)c(-c3ccccc3)o2)cc1 | 147 to 149 |
| OC1CSC(Oc2cccc(-c3cncc(F)c3)c2)C(O)C1O (stereo not drawn) | 211 to 212 |
| CC1Cc2cc(N3C[C@H](CO)OC3=O)ccc2N1C(=O)OCc1ccccc1 (stereo partly drawn) | 144 to 145 |
| CC(C)(C)OC(=O)Nc1cc(N2CCSCC2)c(I)cc1N | 125 to 127 |
| O=C1c2ccccc2C(=O)N1Cc1ncc(/C=C/C(c2cc(Cl)c(Cl)c(Cl)c2)C(F)(F)F)cc1Cl (stereo not drawn) | 79 to 82 |
| CC(=O)OC1CC(=O)C2(C)CCC3C(CCC4CC(=O)CC(C)(O)C43C)C12 (stereo not drawn) | 170 |
| CNC(=NC#N)NCCSCc1nsc(NC(=N)N)n1 | 198 to 199 |
